Assay results as given in BigSolDB 2.1.

Cc1c(Br)cccc1C(=O)O
solubility (mole fraction) (in DMF, 278.15 K): 0.104 | solubility (mole fraction) (in DMF, 283.15 K): 0.126 | solubility (mole fraction) (in DMF, 288.15 K): 0.152 | solubility (mole fraction) (in DMF, 293.15 K): 0.181 | solubility (mole fraction) (in DMF, 298.15 K): 0.216 | solubility (mole fraction) (in DMF, 303.15 K): 0.258 | solubility (mole fraction) (in DMF, 308.15 K): 0.305 | solubility (mole fraction) (in DMF, 313.15 K): 0.361 | solubility (mole fraction) (in DMF, 318.15 K): 0.424 | solubility (mole fraction) (in DMF, 323.15 K): 0.5 | solubility (mole fraction) (in DMF, 328.15 K): 0.584 | solubility (mole fraction) (in THF, 278.15 K): 0.169 | solubility (mole fraction) (in THF, 283.15 K): 0.183 | solubility (mole fraction) (in THF, 288.15 K): 0.196 | solubility (mole fraction) (in THF, 293.15 K): 0.209 | solubility (mole fraction) (in THF, 298.15 K): 0.222 | solubility (mole fraction) (in THF, 303.15 K): 0.236 | solubility (mole fraction) (in THF, 308.15 K): 0.248 | solubility (mole fraction) (in THF, 313.15 K): 0.26 | solubility (mole fraction) (in THF, 318.15 K): 0.271 | solubility (mole fraction) (in THF, 323.15 K): 0.282 | solubility (mole fraction) (in THF, 328.15 K): 0.293 | solubility (mole fraction) (in acetonitrile, 278.15 K): 0.00326 | solubility (mole fraction) (in acetonitrile, 283.15 K): 0.00387 | solubility (mole fraction) (in acetonitrile, 288.15 K): 0.00473 | solubility (mole fraction) (in acetonitrile, 293.15 K): 0.006 | solubility (mole fraction) (in acetonitrile, 298.15 K): 0.00665 | solubility (mole fraction) (in acetonitrile, 303.15 K): 0.00779 | solubility (mole fraction) (in acetonitrile, 308.15 K): 0.00955 | solubility (mole fraction) (in acetonitrile, 313.15 K): 0.0113 | solubility (mole fraction) (in acetonitrile, 318.15 K): 0.0138 | solubility (mole fraction) (in acetonitrile, 323.15 K): 0.0164 | solubility (mole fraction) (in acetonitrile, 328.15 K): 0.0194 | solubility (mole fraction) (in cyclohexane, 283.15 K): 0.00076 | solubility (mole fraction) (in cyclohexane, 288.15 K): 0.00092 | solubility (mole fraction) (in cyclohexane, 293.15 K): 0.00113 | solubility (mole fraction) (in cyclohexane, 298.15 K): 0.00135 | solubility (mole fraction) (in cyclohexane, 303.15 K): 0.00162 | solubility (mole fraction) (in cyclohexane, 308.15 K): 0.00197 | solubility (mole fraction) (in cyclohexane, 313.15 K): 0.00249 | solubility (mole fraction) (in cyclohexane, 318.15 K): 0.00312 | solubility (mole fraction) (in cyclohexane, 323.15 K): 0.00422 | solubility (mole fraction) (in cyclohexane, 328.15 K): 0.00529 | solubility (mole fraction) (in ethanol, 278.15 K): 0.0358 | solubility (mole fraction) (in ethanol, 283.15 K): 0.0398 | solubility (mole fraction) (in ethanol, 288.15 K): 0.0449 | solubility (mole fraction) (in ethanol, 293.15 K): 0.0513 | solubility (mole fraction) (in ethanol, 298.15 K): 0.0563 | solubility (mole fraction) (in ethanol, 303.15 K): 0.0631 | solubility (mole fraction) (in ethanol, 308.15 K): 0.0703 | solubility (mole fraction) (in ethanol, 313.15 K): 0.0831 | solubility (mole fraction) (in ethanol, 318.15 K): 0.0936 | solubility (mole fraction) (in ethanol, 323.15 K): 0.104 | solubility (mole fraction) (in ethanol, 328.15 K): 0.121 | solubility (mole fraction) (in ethyl acetate, 278.15 K): 0.027 | solubility (mole fraction) (in ethyl acetate, 283.15 K): 0.031 | solubility (mole fraction) (in ethyl acetate, 288.15 K): 0.0359 | solubility (mole fraction) (in ethyl acetate, 293.15 K): 0.0413 | solubility (mole fraction) (in ethyl acetate, 298.15 K): 0.0464 | solubility (mole fraction) (in ethyl acetate, 303.15 K): 0.0524 | solubility (mole fraction) (in ethyl acetate, 308.15 K): 0.0601 | solubility (mole fraction) (in ethyl acetate, 313.15 K): 0.0677 | solubility (mole fraction) (in ethyl acetate, 318.15 K): 0.0775 | solubility (mole fraction) (in ethyl acetate, 323.15 K): 0.0879 | solubility (mole fraction) (in ethyl acetate, 328.15 K): 0.101 | solubility (mole fraction) (in methanol, 278.15 K): 0.0205 | solubility (mole fraction) (in methanol, 283.15 K): 0.0261 | solubility (mole fraction) (in methanol, 288.15 K): 0.0301 | solubility (mole fraction) (in methanol, 293.15 K): 0.0355 | solubility (mole fraction) (in methanol, 298.15 K): 0.041 | solubility (mole fraction) (in methanol, 303.15 K): 0.0479 | solubility (mole fraction) (in methanol, 308.15 K): 0.0559 | solubility (mole fraction) (in methanol, 313.15 K): 0.0641 | solubility (mole fraction) (in methanol, 318.15 K): 0.0724 | solubility (mole fraction) (in methanol, 323.15 K): 0.0815 | solubility (mole fraction) (in methanol, 328.15 K): 0.0895
